# According to PubChem BioAssay AID2743 (NMMLSC, 2010):
# Activity calls are given as the source filed them.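 Rule for the calls: active = fitted half-maximal concentration for change in GFP expression of 33 µM or less; inactive = the rest.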
# Tested on: not listed separately
# Assay: concentration-dependent AGP1-GFP change, TOR pathway – cell-based, flow cytometry, S. cerevisiae, MLPCN hits, dose response (AID 2743)
# Settings: S. cerevisiae AGP1-GFP strain, flow cytometry GFP, 3 h; at 33 µM (top of the series)
row,SMILES,GFP fluorescence (kMESF)
1,O=C(OCC(=O)N1CCN(C(=O)c2ccco2)CC1)c1cc(-c2ccccc2)nc2ccccc12,43.7 kMESF (inactive)
2,COc1ccc(C(=O)NC(=S)NNC(=O)CCc2ccccc2)cc1,37.5 kMESF (inactive)
3,O=C(/C=C/c1ccccc1)NC(=S)NNC(=O)Cc1cccs1,41.4 kMESF (inactive)
4,Cc1ccc(S(=O)(=O)ON2C(=O)c3ccccc3C2=O)c(C)c1,33 kMESF (inactive)
5,O=C(CCc1ccccc1)NNC(=S)NC(=O)c1ccccc1,50.8 kMESF (inactive)
6,COc1ccc(OCC(=O)NNC(=S)NC(=O)C2CCCCC2)cc1,35.6 kMESF (inactive)
7,CCOc1ccc(C(C)=O)cc1N1C(=O)C2C3C=CC(O3)C2C1=O (configuration not stated),40.5 kMESF (inactive)
8,O=C1c2ccccc2C(=O)C2OC12 (configuration not stated),33.7 kMESF (inactive)
9,CCCOc1ccc(C(=O)NNC(=S)NC(=O)c2ccco2)cc1,50.3 kMESF (inactive)
10,Cc1ccc(C2=NOC(=O)/C2=C\c2ccc(C)o2)cc1,32.4 kMESF (inactive)
11,O=C1C=CC(=O)N1c1ccc(O)cc1,48.3 kMESF (inactive)
12,Cc1ccsc1/C=C1\C(=O)NC(=S)N(C)C1=O,20.6 kMESF (inactive)
13,Cc1cc(C(=O)COC(=O)c2ccc[nH]c2=O)c(C)n1-c1ccccc1F,24.1 kMESF (inactive)
14,CCc1ccc2c(c1)/C(=C/C(=O)c1cccs1)C(=O)N2,42.4 kMESF (inactive)
15,Cc1ccc(NC(=O)c2cc(N3C(=O)C=CC3=O)ccc2Cl)cc1C,23.9 kMESF (inactive)
16,N/C(=N\OC(=O)c1ccccc1Cl)c1ccc(Cl)cc1,25.7 kMESF (inactive)
17,CCC(=O)Oc1oc(-c2ccccc2)nc1C=Nc1ccc(C)cc1,41.9 kMESF (inactive)
18,Cc1ccc(N/N=C(\C#N)C(N)=S)c(C)c1,38 kMESF (inactive)
19,CC[C@]1(c2ccccc2C)ON(c2ccccc2C(F)(F)F)C1=O,38.9 kMESF (inactive)
20,COc1cc(NC(=O)c2ccc(C)cc2)ccc1NC(=O)c1cc2ccccc2o1,43.8 kMESF (inactive)
21,O=C1C=C(c2ccc(Cl)cc2)C(=O)N1Nc1ccccc1,24.4 kMESF (inactive)
22,O=C(Nc1nc2ccc(F)cc2s1)c1ccccn1,41.4 kMESF (inactive)
23,O=C(Oc1c(Cl)cc(Cl)c2cccnc12)c1cccs1,25.9 kMESF (inactive)
24,CCOC(=O)CSC1=NC(=O)/C(=C/c2ccc(OC)cc2)S1,43.4 kMESF (inactive)
25,O=C(Sc1cccc2cccnc12)c1ccccc1Br,37.3 kMESF (inactive)
26,C=C1C(O)[C@@H]2O[C@]3(CC[C@H](/C=C/C(C)[C@@H]4CC(C)=CC5(O[C@H](C[C@@](C)(O)C(=O)O)CCC5O)O4)O3)CC[C@H]2O[C@@H]1C(O)CC(C)[C@H]1OC2(CCCCO2)CCC1C (some centres not stated),35.8 kMESF (inactive)
27,Cc1cccc2c1NC(=O)/C2=C\C(=O)c1cccs1,43.9 kMESF (inactive)

row,SMILES,GFP fluorescence (kMESF)
1,CC(=O)N(C1=C(Cl)C(=O)c2ccccc2C1=O)C1CCCCC1,-0.34 kMESF (inactive)
2,CCOC(=O)/C(=C\c1cn(C)c2ccccc12)[N+](=O)[O-],41.9 kMESF (inactive)
3,Cc1ccc(C(=O)NNC(=S)NC(=O)COc2ccccc2)cc1,39.8 kMESF (inactive)
4,CC(C)[C@]1(c2ccccc2)ON(c2ccccc2C(F)(F)F)C1=O,34.2 kMESF (inactive)
5,COc1ccc(C(=O)NNC(=S)NC(=O)/C=C/c2cccs2)cc1,52.8 kMESF (inactive)
6,Clc1ccc(N=c2ssnc2Cl)cc1,39.8 kMESF (inactive)
7,Cc1cccc(N=Nc2ccc(O)c3ncccc23)c1,40.1 kMESF (inactive)
8,CCSc1nnc(NC(=O)c2ccccn2)s1,39.6 kMESF (inactive)
9,COc1ccc(N2CCN(C(=O)c3ccccc3)CC2)c([N+](=O)[O-])c1,40.6 kMESF (inactive)
10,O=C1Nc2ccccc2/C1=C\C(=O)c1ccccc1,38.3 kMESF (inactive)
11,O=c1cc(CSc2ccc(Cl)cc2)nc(-c2ccccn2)[nH]1,25.7 kMESF (inactive)
12,O=c1oc2cc(Oc3c([N+](=O)[O-])cc(C(F)(F)F)cc3[N+](=O)[O-])ccc2c2c1CCCC2,40 kMESF (inactive)
13,CCOc1ccc(N/N=C(/C#N)C(N)=O)cc1,54.7 kMESF (inactive)
14,Cc1cccc(N2C(=O)C(Cl)=C(Nc3c(C)n(C)n(-c4ccccc4)c3=O)C2=O)c1C,43.3 kMESF (inactive)
15,O=C1NC(=O)N(Cc2ccc(F)cc2)C(=O)/C1=C/c1cccs1,28.1 kMESF (inactive)
16,Fc1cccc(Nc2ncnc3c2cnn3-c2ccccc2)c1,37 kMESF (inactive)
17,CN1CCN(C(c2ccc(C(F)(F)F)cc2)c2ccc3cccnc3c2O)CC1 (configuration not stated),34 kMESF (inactive)
18,O=C(Nc1ccc(NC(=O)c2cc3ccccc3o2)cc1)c1ccc2c(c1)OCCO2,42.8 kMESF (inactive)
19,O=C1Oc2ccccc2C(=O)/C1=C/c1ccccc1O,39.4 kMESF (inactive)
20,CCC(=O)Nc1ccc(NC(=O)c2cc3ccccc3o2)c(OC)c1,44.6 kMESF (inactive)
21,O=C(/C=C/c1ccccn1)c1ccc(Br)cc1O,20.4 kMESF (inactive)
22,COc1ccc(/C=C2/C(=O)ON=C2c2ccccc2)cc1OC,27.1 kMESF (inactive)
23,O=C1c2sc3nc4ccccc4n3c2C(=O)N1c1ccccc1Cl,23.1 kMESF (inactive)
24,O=C(O)c1ccc(COc2ccccc2C=C2C(=O)c3ccccc3C2=O)cc1,32.6 kMESF (inactive)
25,C#CCOCCOCCOCCNc1nc(N2CCN(C(=O)CCCCCCCCCCNC(=O)[C@H](CCCCN)n3cc(C)nn3)CC2)nc(N2CCN(C(=O)CCCCCCCCCCNC(=O)[C@H](CCCN=C(N)N)n3cc(C[C@@H](C)CC)nn3)CC2)n1,43.6 kMESF (inactive)
26,c1ccc(-c2csc(Nc3cccnc3)n2)nc1,32.1 kMESF (inactive)
27,O=C(O)c1cccc(S(=O)(=O)Nc2ccc(S(=O)(=O)N3CCOCC3)cc2)c1,36.9 kMESF (inactive)

# Tested on: S. cerevisiae AGP1-GFP strain, flow cytometry GFP, 3 h
# Assay: as above
# Settings: not given
row,SMILES,EC50
1,O=C(Oc1ccnc2cc(Cl)ccc12)N1CCCCCC1,3860 nM
2,O=C(OCC(=O)N1CCN(C(=O)c2ccco2)CC1)c1cc(-c2cccc(Br)c2)nc2ccccc12,2810 nM
3,O=C(OCC(=O)N1CCN(C(=O)c2ccco2)CC1)c1cc(-c2ccccc2)nc2ccccc12,2830 nM
4,CNc1nc(N)c([N+](=O)[O-])c(Nc2cccc(F)c2)n1,9390 nM
5,O=C(C#Cc1cccc([N+](=O)[O-])c1)c1ccccc1,305 nM
6,COC(=O)CCS(=O)(=O)c1nc(-c2ccccc2)cc(C(F)(F)F)n1,943 nM
7,Cc1cccc(C)c1NC(=O)C(Cl)C(=O)c1ccccc1 (configuration not stated),781 nM
8,CS(=O)(=O)c1nc(-c2ccccc2)cc(C(F)(F)F)n1,653 nM
9,CC(=O)c1ccc(N2CCN(C(=O)c3ccc(Br)cc3)CC2)c(F)c1,6920 nM
10,CN1CCN(C(=O)c2cc(COc3c(F)cccc3F)on2)CC1c1ccccc1 (configuration not stated),3890 nM
11,CCOC(=O)CS(=O)(=O)c1nc(-c2ccccc2)cc(C(F)(F)F)n1,1380 nM
12,CS(=O)(=O)c1nc(-c2cccs2)cc(C(F)(F)F)n1,872 nM
13,COc1ccc(N2CCN(C(=O)c3ccc(Br)cc3)CC2)c([N+](=O)[O-])c1,3840 nM
14,Cc1ccc(S(=O)(=O)/N=C(\Sc2ccccc2)c2ccccc2)cc1,822 nM
15,CCOC(=O)CCS(=O)(=O)c1nc(-c2ccccc2)cc(C(F)(F)F)n1,941 nM
16,CC(C)(C)C(=O)C(Cl)C(=O)Nc1ccccc1 (configuration not stated),570 nM
17,CCCOc1ccc(C(=O)NNC(=S)NC(=O)CC)cc1,1940 nM
18,CCN(CC)C(=O)Oc1ccnc2cc(Cl)ccc12,7220 nM
